In patent US20240148749A1 (priority 2021, published 2024):

Test system: CLP mice
Experiment: Survival after cecal ligation and puncture (CLP) model of sepsis
Format: in vivo, mouse
Description: A log-rank (Mantel-Cox) p value for trend was calculated.
We used peritonitis induced by CLP as a model of sepsis (Rittirsch et al., 2009). Briefly, animals were anesthetized with ketamine (Imalgene® 1000 100 mg/kg, Merial, France) and Xylazine (Rompun® 2% 20 mg/kg, Bayer, Germany) prior to surgery. After laparotomy, caecum was ligatured at the distal third with a 4.0 suture and the distal part was perforated twice with a 21 Gauge needle.
For use it is dissolved following the guidance provided by the manufacturer.
Clinical score was assessed 6, 12 and 24 hours and 21 days after CLP using a modified SmithKline Beecham, Harwell, Imperial College and Royal London Hospital phenotype assessment (SHIRPA) (Rogers et al., 1997) of the maximum score of fourteen. Weight, temperature and locomotor activity using an open field box were measured at the same time points. We determined survival rate twice a day for 21 days after CLP. The symptoms included in the a modified SmithKline Beecham, Harwell, Imperial College and Royal London Hospital phenotype assessment (SHIRPA) are tremors, periorbital exudates, piloerection, lethargy, vocalisation, positional passivity, no escapement to threat, long transfer arousal and diarrhoea. Each condition was scored from 0 to 2.
Experimental protocols were conducted in accordance with the French and European regulations on Animal Welfare and with Public Health Service recommendations. The experiments were performed on C57BL/6JRj mice (male and female) purchased from Janvier Laboratory. Mice were housed in cages in groups of 7, in a temperature (22±1.5° C.) and humidity-controlled environment, with a 12 h light/dark cycle. All animals used in the study were between 10 and 12 weeks old. Sample-size estimates for animal experiments were based on prior animal-modelling studies used in the Unit for the investigation of caecal ligation and puncture (CLP).
At the end, two groups were compared: CLP-Placebo, CLP-BMX-010. We determined survival rate twice a day for 4 days after CLP.”

## CC[n+]1ccccc1-c1c2nc(c(-c3cccc[n+]3CC)c3ccc([nH]3)c(-c3cccc[n+]3CC)c3nc(c(-c4cccc[n+]4CC)c4ccc1[nH]4)C=C3)C=C2.[Mn+3] [BMX-010, manganese(III) 5,10,15,20-tetrakis(N-ethylpyridinium-2-yl) porphyrin]
CLP experiment, FIG. 10
  survival of mice hours post-CLP (probability of survival over time) versus placebo: outperforms the placebo
CLP mice, 2 mg/kg intra peritoneal every 12 hours during 48 hours (4 injections), N=12 mice C57BL6/group
  survival at 4 days post-CLP versus placebo: more that doubles survival
